The assay deals with diaphorase. In words: fluorescently labeled diaphorase binding to peptide array with or without excess FAD. Particulars: for 1 microM FAD (array fluorescence of bound diaphorase) / 1 micro no FAD (array fluorescence of bound diaphorase): 1 micromolar labeled diaphorase; for 1 microM FAD (array fluorescence of bound diaphorase) / 10 microM FAD (array fluorescence of bound diaphorase): excess FAD present; for 1 microM FAD (array fluorescence of bound diaphorase) / 1 micro no FAD (array fluorescence of bound diaphorase) / 10 microM FAD (array fluorescence of bound diaphorase) / 10 microM no FAD (array fluorescence of bound diaphorase): 65535 is detector saturation; for 10 microM FAD (array fluorescence of bound diaphorase) / 10 microM no FAD (array fluorescence of bound diaphorase): 10 micromolar labeled diaphorase; for 1 microM noFAD/FAD / 10 microM noFAD/FAD: ratio of binding without FAD to binding with FAD; for 1 microM noFAD/FAD / Meas. ratio: 1 micromolar diaphorase; for 10 microM noFAD/FAD: 10 micromolar diaphorase; for Meas. ratio: ratio without/with FAD calculated from measured binding values. Here is the method: Measurements were performed in which diaphorase was bound to an array of about 126,000 unique sequences. The sequences were chosen simply to cover sequence space. 16 of the natural 20 amino acids were used to make up these sequences with C, I, M and T omitted. The diaphorase was fluorescently labeled and each peptide sequence feature was scanned and fluorescence recorded on the array. Diaphorase bound tightly to some peptides and not at all to others. Two different concentrations of diaphorase were used, 1 and 10 micromolar, and the diaphorase was either bound in the presence of excess FAD or not. […] Indeed the Pearson correlation coefficient between w/ and w/o FAD was >0.97, which actually speaks to the reproducibility of this dataset. However, there are some differences as shown on the scatter plot of FIG. 1. When one takes a ratio of the binding without FAD and the binding with FAD, one finds the following top 30 ratios (Table 1): Note that all these sequences end with a GSG linker sequence. Because there are two concentrations, one can easily check for consistency. Note that 65535 is detector saturation, so one has to ignore those values. For this reason, the lower concentration is used most of the time. […] It appears that this was some kind of error and was ignored in subsequent analysis. A similar conclusion can be made with the 7th highest value. Looking at the sequences, RW or at least R or K followed by a nonpolar or aromatic amino acid at the N-terminus. This is interesting as FAD is negatively charged, though the adenine in FAD looks a bit like tryptophan (see FIG. 2).

As for “LAKQNRVEDGSS (LAKQNRVEDGSG) [array peptide with C-terminal GSG linker]”, the “1 microM FAD (array fluorescence of bound diaphorase)” value came out at 1435, the “1 micro no FAD (array fluorescence of bound diaphorase)” value came to 770.5, the “10 microM FAD (array fluorescence of bound diaphorase)” value was 3699 and the “10 microM no FAD (array fluorescence of bound diaphorase)” value was 2948.5. Besides, the “1 microM noFAD/FAD” value was determined as 0.5369, the “10 microM noFAD/FAD” value is recorded as 0.7971 and the Meas. ratio was 0.54.

Regarding “WRSVYVPNGGSG [array peptide with C-terminal GSG linker]”, the Meas. ratio is on record as 2.35.

Take “WRGFKFADGGSG [array peptide with C-terminal GSG linker]”: the “1 microM FAD (array fluorescence of bound diaphorase)” value is 2156.5, the “1 micro no FAD (array fluorescence of bound diaphorase)” value came out at 5654.5, the “10 microM FAD (array fluorescence of bound diaphorase)” value stood at 31464.5 and the “10 microM no FAD (array fluorescence of bound diaphorase)” value is on record as 58885. Also, the “1 microM noFAD/FAD” value was found to be 2.622, the “10 microM noFAD/FAD” value is recorded as 1.871 and the Meas. ratio was 2.62.

Consider “VERASYNLDGSG [array peptide with C-terminal GSG linker]”, for which the “1 microM FAD (array fluorescence of bound diaphorase)” value was found to be 2238, the “1 micro no FAD (array fluorescence of bound diaphorase)” value was found to be 759, the “10 microM FAD (array fluorescence of bound diaphorase)” value is 3374 and the “10 microM no FAD (array fluorescence of bound diaphorase)” value was 2900.5. Besides, the “1 microM noFAD/FAD” value is 0.3391, the “10 microM noFAD/FAD” value is reported as 0.8597 and the Meas. ratio is given as 0.34.

Turning to “WHLLGWVGYGGSG [array peptide with C-terminal GSG linker]”, the Meas. ratio is listed as 0.70.

On to “DLFQLVFSGSG [array peptide with C-terminal GSG linker]”, for which the “1 microM FAD (array fluorescence of bound diaphorase)” value was 9011, the “1 micro no FAD (array fluorescence of bound diaphorase)” value is recorded as 5775, the “10 microM FAD (array fluorescence of bound diaphorase)” value is listed as 65535 and the “10 microM no FAD (array fluorescence of bound diaphorase)” value is 32672.5. For the same sequence, the “1 microM noFAD/FAD” value was 0.6409, the “10 microM noFAD/FAD” value was found to be 0.4986 and the Meas. ratio is on record as 0.64.

Turning to “RFGQNLPLGGSG [array peptide with C-terminal GSG linker]”, the “1 microM FAD (array fluorescence of bound diaphorase)” value was found to be 2103.25, the “1 micro no FAD (array fluorescence of bound diaphorase)” value is on record as 5802.25, the “10 microM FAD (array fluorescence of bound diaphorase)” value is 34712 and the “10 microM no FAD (array fluorescence of bound diaphorase)” value is reported as 63502.5. In addition, the “1 microM noFAD/FAD” value was determined as 2.759, the “10 microM noFAD/FAD” value was determined as 1.829 and the Meas. ratio was 2.76.

With “YRFPNAQSPGGSG [array peptide with C-terminal GSG linker]”, the “1 microM FAD (array fluorescence of bound diaphorase)” value was determined as 2373, the “1 micro no FAD (array fluorescence of bound diaphorase)” value stood at 6240, the “10 microM FAD (array fluorescence of bound diaphorase)” value is recorded as 37721.5 and the “10 microM no FAD (array fluorescence of bound diaphorase)” value amounted to 65535. Also, the “1 microM noFAD/FAD” value turned out to be 2.63, the “10 microM noFAD/FAD” value was 1.737 and the Meas. ratio is 2.63.

Turning to “YRWGAKHYGGSG [array peptide with C-terminal GSG linker]”, the Meas. ratio was 2.06.

In the case of “KPLAVQKVGSG (KPLAVQKVFGSG) [array peptide with C-terminal GSG linker]”, the “1 microM FAD (array fluorescence of bound diaphorase)” value was determined as 3707.5, the “1 micro no FAD (array fluorescence of bound diaphorase)” value stood at 34797.5, the “10 microM FAD (array fluorescence of bound diaphorase)” value turned out to be 36814 and the “10 microM no FAD (array fluorescence of bound diaphorase)” value amounted to 46161. Also, the “1 microM noFAD/FAD” value was determined as 9.386, the “10 microM noFAD/FAD” value stood at 1.254 and the Meas. ratio is given as 9.39.

With “RWSFPAKGGSG [array peptide with C-terminal GSG linker]”, the “1 microM FAD (array fluorescence of bound diaphorase)” value is recorded as 3614, the “1 micro no FAD (array fluorescence of bound diaphorase)” value amounted to 10002.75, the “10 microM FAD (array fluorescence of bound diaphorase)” value is 51221.25 and the “10 microM no FAD (array fluorescence of bound diaphorase)” value is given as 65535. Besides, the “1 microM noFAD/FAD” value was 2.768, the “10 microM noFAD/FAD” value was 1.279 and the Meas. ratio is on record as 2.77.

For the sequence “QLLQLLFGGSG [array peptide with C-terminal GSG linker]”, the “1 microM FAD (array fluorescence of bound diaphorase)” value is 6311.5, the “1 micro no FAD (array fluorescence of bound diaphorase)” value is listed as 3228.25, the “10 microM FAD (array fluorescence of bound diaphorase)” value came to 53382.25 and the “10 microM no FAD (array fluorescence of bound diaphorase)” value was found to be 19529.5. Also, the “1 microM noFAD/FAD” value worked out at 0.5115, the “10 microM noFAD/FAD” value is on record as 0.3658 and the Meas. ratio is recorded as 0.51.

For the sequence “VVQALFDGSG [array peptide with C-terminal GSG linker]”, the “1 microM FAD (array fluorescence of bound diaphorase)” value was found to be 2304.25, the “1 micro no FAD (array fluorescence of bound diaphorase)” value is listed as 1467.5, the “10 microM FAD (array fluorescence of bound diaphorase)” value was determined as 21180.25 and the “10 microM no FAD (array fluorescence of bound diaphorase)” value was 9478.25. In addition, the “1 microM noFAD/FAD” value is given as 0.6369, the “10 microM noFAD/FAD” value amounted to 0.4475 and the Meas. ratio is on record as 0.64.

For WRVQAWRPNKVEG, the Meas. ratio is on record as 2.43.

For the sequence “KHSFQKELGGSG [array peptide with C-terminal GSG linker]”, the “1 microM FAD (array fluorescence of bound diaphorase)” value was found to be 727.5, the “1 micro no FAD (array fluorescence of bound diaphorase)” value turned out to be 2086, the “10 microM FAD (array fluorescence of bound diaphorase)” value turned out to be 300.5 and the “10 microM no FAD (array fluorescence of bound diaphorase)” value was determined as 2387.25. Further, the “1 microM noFAD/FAD” value is 2.867, the “10 microM noFAD/FAD” value turned out to be 0.7943 and the Meas. ratio is listed as 2.87.

“RYAYFQHLGGSG [array peptide with C-terminal GSG linker]”: the “1 microM FAD (array fluorescence of bound diaphorase)” value was determined as 4971.5, the “1 micro no FAD (array fluorescence of bound diaphorase)” value came to 13584.75, the “10 microM FAD (array fluorescence of bound diaphorase)” value is 64053.5 and the “10 microM no FAD (array fluorescence of bound diaphorase)” value was 65535. Further, the “1 microM noFAD/FAD” value was 2.733, the “10 microM noFAD/FAD” value is 1.023 and the Meas. ratio was 2.73.

“RYPWNKLYKFDGSG [array peptide with C-terminal GSG linker]”: the “1 microM FAD (array fluorescence of bound diaphorase)” value stood at 3483.25, the “1 micro no FAD (array fluorescence of bound diaphorase)” value is 9735.75, the “10 microM FAD (array fluorescence of bound diaphorase)” value was determined as 53014.5 and the “10 microM no FAD (array fluorescence of bound diaphorase)” value amounted to 65535. Also, the “1 microM noFAD/FAD” value came to 2.795, the “10 microM noFAD/FAD” value is 1.236 and the Meas. ratio is given as 2.80.

As to VSWVFGLGHEGGS, the Meas. ratio is given as 0.71.

As to “PRYQNFGGGSG [array peptide with C-terminal GSG linker]”, the “1 microM FAD (array fluorescence of bound diaphorase)” value was determined as 2458, the “1 micro no FAD (array fluorescence of bound diaphorase)” value is 6907, the “10 microM FAD (array fluorescence of bound diaphorase)” value worked out at 36662 and the “10 microM no FAD (array fluorescence of bound diaphorase)” value is 65535. In addition, the “1 microM noFAD/FAD” value turned out to be 2.81, the “10 microM noFAD/FAD” value was determined as 1.788 and the Meas. ratio was 2.81.

The record behind these values is US20190064177A1, “INCORPORATING COMPETITIVE BINDING INFORMATION INTO MOLECULAR ARRAY ANALYSIS TO GENERATE FUNCTION NETWORKS OF INTERACTIONS” (ARIZONA BOARD OF REGENTS ON BEHALF OF ARIZONA STATE …, priority 2017, published 2019).
